Values of other authors as cited in patent US20200113899A1, “STATIN COMPOSITIONS AND METHODS FOR USE IN TREATING SYNUCLEINOPATHIES” (CHASE THERAPEUTICS CORPORATION, priority 2017, published 2020).

What was measured:
[1] = test system: SH-SY5Y cells
[2] = test system: alpha-synuclein; settings: transgenic mouse models
[3] = pramipexole 5 mg/day
[4] = test system: alpha-synuclein; settings: Parkinson patients, therapeutic doses, compared with pre-treatment values; magnitude of the effect small
[5] = 535 PD patients

CC(C)c1nc(N(C)S(C)(=O)=O)nc(-c2ccc(F)cc2)c1/C=C/[C@@H](O)C[C@@H](O)CC(=O)O [rosuvastatin, (3R,5S,6E)-7-[4-(4-Fluorophenyl)-2-(N-methylmethanesulfonamido)-6-(propan-2-yl)pyrimidin-5-yl]-3,5-dihydroxyhept-6-enoic acid]
effect against rotenone-induced neurotoxicity [1]: neuroprotective effect
α-synuclein expression [1]: modulation

CC[C@H](C)C(=O)O[C@H]1C[C@@H](C)C=C2C=C[C@H](C)[C@H](CC[C@@H]3C[C@@H](O)CC(=O)O3)[C@H]21 [lovastatin, (1S,3R,7S,8S,8aR)-8-{2-[(2R,4R)-4-Hydroxy-6-oxooxan-2-yl]ethyl}-3,7-dimethyl-1,2,3,7,8,8a-hexahydronaphthalen-1-yl (2S)-2-methylbutanoate]
alpha-synuclein accumulation and oxidation [2]: ameliorated

CCCN[C@H]1CCc2nc(N)sc2C1 [pramipexole, (S)-6-propylamino-4,5,6,7-tetrahydro-1,3-benzothiazole-2-amine]
patients with nausea [3]: 76%
patients with vomiting [3]: 39%
patients not able to complete the study ([3]; presumably because of intolerable GI adverse events): 36%
relative expression of alpha-synuclein [4]: significantly lowered
neuroprotective (disease modifying) activity [5]: failed to evidence neuroprotective (i.e., disease modifying) activity
